Measured values reported in patent US20090312364A1, “NOVEL CHROMEN-2-ONE DERIVATIVES AND THEIR USE AS MONOAMINE NEUROT[…]-UPTAKE INHIBITORS” (NeuroSearch A/S, priority 2006, published 2009).
Structures can show the parent of a compound that is named as a salt.

Key:
Type in all cases: biochemical
[1] = biological target: T1, serotonine (5-HT) reuptake in synaptosomes (Rattus norvegicus, UniProt P31652); assay: In vitro inhibition of 5-HT reuptake in synaptosomes; details: 3H-5-HT, as described in WO 97/16451, read-out: 5-HT-uptake IC50
T1 construct: in synaptosomes as described in WO 97/16451; from tissue
Method: (§1) A number of compounds were tested for their ability to inhibit the reuptake of the monoamine neurotransmitters dopamine (DA), noradrenaline (NA) and serotonine (5-HT) in synaptosomes as described in WO 97/16451.
(§2) The test values are given as IC50 (the concentration (μM) of the test substance which inhibits the specific binding of ^3H-DA, ^3H-NA, or ^3H-5-HT by 50%).

[2] = biological target: T2, dopamine (DA) reuptake in synaptosomes (Rattus norvegicus, UniProt P23977); assay: In vitro inhibition of DA reuptake in synaptosomes; details: 3H-DA, as described in WO 97/16451, read-out: DA-uptake IC50
T2 construct: in synaptosomes as described in WO 97/16451; from tissue
Method: as §1, §2

[3] = biological target: T3, noradrenaline (NA) reuptake in synaptosomes (Rattus norvegicus, UniProt Q9WTR4); assay: In vitro inhibition of NA reuptake in synaptosomes; details: 3H-NA, as described in WO 97/16451, read-out: NA-uptake IC50
T3 construct: in synaptosomes as described in WO 97/16451; from tissue
Method: as §1, §2

T2 sequence (P23977 whole entry): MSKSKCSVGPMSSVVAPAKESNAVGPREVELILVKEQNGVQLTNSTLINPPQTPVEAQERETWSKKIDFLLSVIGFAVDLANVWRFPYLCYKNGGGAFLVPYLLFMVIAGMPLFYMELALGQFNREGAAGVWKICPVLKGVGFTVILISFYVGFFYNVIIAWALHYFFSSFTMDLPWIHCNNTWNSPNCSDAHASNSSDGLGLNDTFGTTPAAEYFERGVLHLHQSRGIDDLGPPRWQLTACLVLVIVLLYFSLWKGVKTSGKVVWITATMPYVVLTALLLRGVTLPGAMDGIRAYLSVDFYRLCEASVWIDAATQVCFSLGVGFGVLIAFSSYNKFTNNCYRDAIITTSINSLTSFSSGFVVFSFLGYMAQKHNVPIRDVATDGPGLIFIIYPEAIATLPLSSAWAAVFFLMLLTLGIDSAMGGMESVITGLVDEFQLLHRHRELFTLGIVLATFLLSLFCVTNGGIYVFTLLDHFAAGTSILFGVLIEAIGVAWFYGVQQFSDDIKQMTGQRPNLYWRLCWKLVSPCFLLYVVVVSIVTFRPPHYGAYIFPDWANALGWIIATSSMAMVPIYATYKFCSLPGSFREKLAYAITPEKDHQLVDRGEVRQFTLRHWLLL
T3 sequence (Q9WTR4 1-597): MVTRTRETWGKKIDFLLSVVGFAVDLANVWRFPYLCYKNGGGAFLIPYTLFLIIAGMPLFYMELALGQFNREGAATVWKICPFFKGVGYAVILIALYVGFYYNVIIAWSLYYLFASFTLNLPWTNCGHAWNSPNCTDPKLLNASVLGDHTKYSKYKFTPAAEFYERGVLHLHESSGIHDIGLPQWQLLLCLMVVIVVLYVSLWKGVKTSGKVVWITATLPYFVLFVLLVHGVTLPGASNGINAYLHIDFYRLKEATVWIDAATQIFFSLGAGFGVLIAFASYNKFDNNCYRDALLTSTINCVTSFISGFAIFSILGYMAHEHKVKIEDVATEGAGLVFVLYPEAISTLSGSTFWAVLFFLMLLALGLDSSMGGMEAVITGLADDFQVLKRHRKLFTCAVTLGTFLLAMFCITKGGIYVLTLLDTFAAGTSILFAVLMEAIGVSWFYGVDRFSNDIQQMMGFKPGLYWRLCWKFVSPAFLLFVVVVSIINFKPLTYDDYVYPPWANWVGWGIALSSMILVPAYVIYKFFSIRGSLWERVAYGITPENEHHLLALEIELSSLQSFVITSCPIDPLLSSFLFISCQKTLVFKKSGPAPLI
T1 sequence (P31652 whole entry): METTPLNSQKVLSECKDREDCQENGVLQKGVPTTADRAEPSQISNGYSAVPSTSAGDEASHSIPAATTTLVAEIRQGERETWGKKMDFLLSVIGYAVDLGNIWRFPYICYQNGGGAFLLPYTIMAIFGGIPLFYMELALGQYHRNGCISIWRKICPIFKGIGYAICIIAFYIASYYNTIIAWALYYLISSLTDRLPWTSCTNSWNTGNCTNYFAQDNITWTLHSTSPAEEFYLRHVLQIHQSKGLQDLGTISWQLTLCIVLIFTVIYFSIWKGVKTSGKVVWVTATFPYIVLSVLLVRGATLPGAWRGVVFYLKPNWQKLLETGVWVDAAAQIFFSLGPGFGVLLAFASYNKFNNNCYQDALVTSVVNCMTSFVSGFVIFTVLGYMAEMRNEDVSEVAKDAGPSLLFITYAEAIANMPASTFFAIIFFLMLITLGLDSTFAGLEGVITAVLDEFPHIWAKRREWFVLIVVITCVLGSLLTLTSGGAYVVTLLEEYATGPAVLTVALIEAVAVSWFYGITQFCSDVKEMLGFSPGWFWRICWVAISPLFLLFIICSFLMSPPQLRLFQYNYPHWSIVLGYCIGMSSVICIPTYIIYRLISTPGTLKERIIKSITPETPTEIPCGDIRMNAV

| Compound | IC50 [1] [nM] | IC50 [2] [nM] | IC50 [3] [nM] |
| --- | --- | --- | --- |
| O=c1oc2cc(O[C@@H]3C[C@H]4CC[C@@H](C3)N4)ccc2cc1-c1cccc(F)c1 [6th Compound of Example 2, exo-7-[(1S,3S,5R)-(8-Aza-bicyclo[3.2.1]oct-3-yl)oxy]-3-(3-fluoro-phenyl)-chromen-2-one hydrochloric acid salt] | 5.8 | 28 | 26 |
| O=c1oc2cc(O[C@@H]3C[C@H]4CC[C@@H](C3)N4)ccc2cc1-c1ccccc1 [1st Compound of Example 2, exo-7-[(1S,3S,5R)-(8-Aza-bicyclo[3.2.1]oct-3-yl)oxy]-3-phenyl-chromen-2-one hydrochloric acid salt] | 6 | 48 | 19 |
| O=c1cc(-c2ccccc2)c2ccc(O[C@@H]3C[C@H]4CC[C@@H](C3)N4)cc2o1 [4th Compound of Example 2, exo-7-[(1S,3S,5R)-(8-Aza-bicyclo[3.2.1]oct-3-yl)oxy]-4-phenyl-chromen-2-one hydrochloric acid salt] | 29 | > 1000 | > 1000 |
